{"source": "ChEMBL document CHEMBL5335798", "about": "(J Med Chem, 2024)", "experiment": "Permeability of compound at pH 7.4 at 200 uM measured after 5 hrs by PAMPA assay", "data": [{"compound": "CCC([Se]c1ccc2ccccc2c1)c1nc(N)nc(N2CCN(C)CC2)n1", "note": "(stereo unspecified)", "values": [{"measurement": "Papp at 5 h, 200 µM", "result": 10.5, "unit": "×10⁻⁶ cm/s"}]}]}
